Positions of bridges follow the written chain, without caps; N, C: chain ends. Non-standard residues stand in square brackets, D forms with d. Residues, ends and D or L forms follow the SMILES beside them. *: point of attachment. hPhe(3-Cl-4-CF3) = N[C@@H](CCc1ccc(C(F)(F)F)c(Cl)c1)C(=O)O; hPhe(3-F,4-CF3) = N[C@@H](CCc1ccc(C(F)(F)F)c(F)c1)C(=O)O; NMePhe(4-Cl) = CN[C@@H](Cc1ccc(Cl)cc1)C(=O)O; NMePhe(4-Me) = CN[C@@H](Cc1ccc(C)cc1)C(=O)O; NMeGly(cPent) = CN[C@H](C(=O)O)C1CCCC1; NMeCha = CN[C@@H](CC1CCCCC1)C(=O)O; NMeChg = CN[C@H](C(=O)O)C1CCCCC1; NMeI = CC[C@H](C)[C@H](NC)C(=O)O; NMeD = CN[C@@H](CC(=O)O)C(=O)O; NMeL = CN[C@@H](CC(C)C)C(=O)O; NMeV = CN[C@H](C(=O)O)C(C)C; d(β3hA) = C[C@@H](N)CC(=O)O; NMeS = CN[C@@H](CO)C(=O)O; Morpholide = C1CN(*)CCO1; NMeA = CN[C@@H](C)C(=O)O; Pyrrolidide = C1CCN(*)C1; Ac5c = NC1(C(=O)O)CCCC1; Aze = O=C(O)[C@@H]1CCN1; Ac4c = NC1(C(=O)O)CCC1; CH2CMe2OH = CC(C)(O)C*; βAla = NCCC(=O)O; Sar = CNCC(=O)O

The target in the experiment is T1, Kras and SOS1 (biotin-tagged human Kras loaded with GDP, His-tagged human SOS1) (Homo sapiens, UniProt P01116, G12D).
T1 construct: made in house; host or cells: E. coli (stated for Kras only)
T1 sequence (P01116 1-188 isoform P01116-2 G12D): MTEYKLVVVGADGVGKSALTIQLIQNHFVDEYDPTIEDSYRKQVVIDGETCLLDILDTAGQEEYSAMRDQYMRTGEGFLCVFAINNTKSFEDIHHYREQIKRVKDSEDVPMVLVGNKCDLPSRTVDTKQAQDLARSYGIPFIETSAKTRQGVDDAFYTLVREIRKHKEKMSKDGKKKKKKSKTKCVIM
Nature of the experiment: Protein-protein interaction inhibition between Kras and SOS1 (KrasGl2D-SOS PPI) using AlphaScreen. The experiment is classed as binding. The settings on record: AlphaScreen; biotin-tagged human Kras loaded with GDP, His-tagged human SOS1; read-out: KRAS G12D-SOS PPI IC50. Summed up:
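Energy transfer from nickel-chelate donor beads bound to His-SOS1 to streptavidin acceptor beads bound to biotin-Kras, expressed in E. coli and loaded with GDP after purification, was monitored. Donors were excited at 680 nm; singlet oxygen reaching acceptors gave emission read at 520-620 nm.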
As for `CC[C@H](C)[C@@H]1NC(=O)[C@H](CC(C)C)N(C)C(=O)C[C@@H](C(=O)N2CCOCC2)N(C)C(=O)[C@H](C2CCCCC2)N(C)C(=O)C2(CCC2)NC(=O)[C@@H]2CCCN2C(=O)[C@H](CCc2ccc(C(F)(F)F)c(Cl)c2)NC(=O)CN(C)C(=O)[C@H](CC2CCCCC2)N(C)C(=O)CN(C)C(=O)CN(C)C1=O` [Compound 1875] ([NMeL]I[Sar][Sar][NMeCha][Sar][hPhe(3-Cl-4-CF3)]P[Ac4c][NMeChg][NMeD]-Morpholide; lactam N-11), the IC50 turned out to be 0.42 nM.
The value for `CC[C@H](C)[C@@H]1NC(=O)[C@H](CC(C)C)N(C)C(=O)C[C@@H](C(=O)N(C)C)N(C)C(=O)[C@H](C2CCCC2)N(C)C(=O)C2(CCCC2)NC(=O)[C@@H]2CCCN2C(=O)[C@H](CCc2ccc(C(F)(F)F)c(Cl)c2)NC(=O)CN(C)C(=O)[C@H](Cc2ccc(C)cc2)N(C)C(=O)[C@@H]2CCN2C(=O)[C@H](C)NC1=O` [Compound 363, (5S,8S,11S,15S,18S,23aS,29S,35S,37aS)-8-((S)-sec-butyl)-29-(3-chloro-4-(trifluoromethyl)phenethyl)-18-cyclopentyl-11-isobutyl-N,N,5,12,16,19,33,36-octamethyl-35-(4-methylbenzyl)-4,7,10,13,17,20,23,28,31,34,37-undecaoxotetratriacontahydro-2H,4H-spiro[azeto[2,1-u]pyrrolo[2,1-i][1,4,7,10,13,16,19,22,25,28,31]undecaazacyclotetratriacontine-21,1′-cyclopentane]-15-carboxamide] ([NMeL]IA[Aze][NMePhe(4-Me)][Sar][hPhe(3-Cl-4-CF3)]P[Ac5c][NMeGly(cPent)][NMeD]-NMe2; lactam N-11) was 0.65 nM; that for `CC[C@H](C)[C@@H]1NC(=O)[C@H](C(C)C)N(C)C(=O)C[C@@H](C)NC(=O)[C@H](CC(C)C)N(C)C(=O)C2(CCCC2)NC(=O)[C@H](CC(C)C)N(C)C(=O)[C@H](CCc2ccc(C(F)(F)F)c(F)c2)NC(=O)CN(C)C(=O)[C@H](Cc2ccc(Cl)cc2)N(C)C(=O)[C@@H]2CCN2C(=O)CN(C)C1=O` [Compound 418] (cyclo([Ac5c][NMeL][d(β3hA)][NMeV]I[Sar][Aze][NMePhe(4-Cl)][Sar][hPhe(3-F,4-CF3)][NMeL])) was 17 nM.
With `CC[C@H](C)[C@@H]1NC(=O)[C@H](CC(C)C)N(C)C(=O)C[C@@H](C(=O)N2CCCC2)N(C)C(=O)[C@H]([C@@H](C)CC)N(C)C(=O)C2(CCCC2)NC(=O)[C@@H]2CCCN2C(=O)[C@H](CCc2ccc(C(F)(F)F)c(Cl)c2)NC(=O)CN(C)C(=O)[C@H](CC2CCCCC2)N(C)C(=O)CN(C)C(=O)CN(C)C1=O` [Compound 1662] ([NMeL]I[Sar][Sar][NMeCha][Sar][hPhe(3-Cl-4-CF3)]P[Ac5c][NMeI][NMeD]-Pyrrolidide; lactam N-11), the IC50 is 0.65 nM.
The result for `CC[C@H](C)[C@@H]1NC(=O)[C@H](CC(C)C)N(C)C(=O)C[C@@H](C(=O)N(C)C)N(C)C(=O)[C@H]([C@@H](C)CC)N(C)C(=O)C2(CCCC2)NC(=O)[C@@H]2CCCN2C(=O)[C@H](CCc2ccc(C(F)(F)F)c(Cl)c2)NC(=O)CN(C)C(=O)[C@H](CC2CCCCC2)N(C)C(=O)[C@@H]2CCN2C(=O)[C@H](C)N(C)C1=O` [Compound 1858] ([NMeL]I[NMeA][Aze][NMeCha][Sar][hPhe(3-Cl-4-CF3)]P[Ac5c][NMeI][NMeD]-NMe2; lactam N-11) reads 1.1 nM; that for `CC[C@H](C)[C@@H]1NC(=O)CCNC(=O)[C@H](COCC(C)(C)O)N(C)C(=O)[C@H](C2CCCCC2)N(C)C(=O)C2(CCCC2)NC(=O)[C@@H]2CCCN2C(=O)[C@H](CCc2ccc(C(F)(F)F)c(Cl)c2)NC(=O)CN(C)C(=O)[C@H](CC2CCCCC2)N(C)C(=O)CN(C)C(=O)CN(C)C1=O` [Compound 605] (cyclo([Ac5c][NMeChg][NMeS](CH2CMe2OH)[βAla]I[Sar][Sar][NMeCha][Sar][hPhe(3-Cl-4-CF3)]P)), 9 nM.

(Values after patent US12371454B2, “Cyclic peptide compound having Kras inhibitory action” (priority 2019, dated 2025).)
